According to paper PMC5608804, “Stepwise Evolution Improves Identification of Diverse Peptides Binding to a Protein Target” (Scientific Reports, 2017):

Biological target: T1, streptavidin (Streptomyces avidinii, UniProt P22629)
T1 construct: purchased GE Healthcare (Little Chalfont, UK)
Assay: Cy5-streptavidin binding on HotSpot discovery array, 5-mer L-peptide library
Conditions: for S/B: signal to background ratio
Outline: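 Array of 2,476,099 5-mer peptides (19 amino acids, no cysteine) with Gly-Ser linkers, probed overnight at 4 °C with 0.5 µg/ml Cy5-streptavidin in Tris pH 7.4 buffer containing casein or BSA plus Tween-20. Cy5 fluorescence read at 635 nm; peptides selected by signal-to-background >4 across three arrays.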

[1] = 5-mer L-peptide library array, Cy5-streptavidin, from average of three arrays
[2] = 5-mer L-peptide library array, Cy5-streptavidin
[3] = 5-mer L-peptide library array, Cy5-streptavidin, from the average of three arrays
[4] = average of three arrays, L-peptide 5-mer library
[5] = 5-mer L-peptide library, from the average of three arrays

T1 sequence (P22629 25-183): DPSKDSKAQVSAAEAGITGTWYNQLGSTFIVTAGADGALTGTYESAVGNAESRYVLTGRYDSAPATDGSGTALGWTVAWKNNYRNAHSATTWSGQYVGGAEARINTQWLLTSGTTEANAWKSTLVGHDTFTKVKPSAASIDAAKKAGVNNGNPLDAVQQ

KHPQV
S/B (signal to background ratio) [1]: 33.0

KHPQW
S/B [2]: 9.2

KHPQY
S/B [2]: 18.3

KIHPQ
S/B (signal to background ratio) [3]: 60.4

KKHPQ
S/B (signal to background ratio) [1]: 22.5

KLHPQ
S/B (signal to background ratio) [3]: 71.4

KMHPM
S/B (signal to background ratio) [1]: 22.0

KMHPQ
S/B (signal to background ratio) [3]: 80.4

KNHPQ
S/B (signal to background ratio) [3]: 104.8

KPHPM
S/B (signal to background ratio) [1]: 21.9

KPHPQ
S/B (signal to background ratio) [3]: 117.2

KQHPQ
S/B (signal to background ratio) [3]: 94.4

KSHPQ
S/B (signal to background ratio) [3]: 80.0

KTHPQ
S/B (signal to background ratio) [3]: 86.3

KVHPQ
S/B (signal to background ratio) [3]: 65.5

KWHPQ
S/B (signal to background ratio) [1]: 127.9

KYHPQ
S/B (signal to background ratio) [1]: 140.2

LAAYH [L-amino acid 5-mer array peptide]
S/B (signal to background ratio) [3]: 67.7
S/B (signal to background ratio) [4]: 67.7

LAEYH [L-amino acid 5-mer array peptide]
S/B (signal to background ratio) [1]: 45.0
S/B (signal to background ratio) [4]: 45.0

LAFFH [L-amino acid 5-mer array peptide]
S/B (signal to background ratio) [5]: 4.9
S/B (signal to background ratio) [4]: 4.9

LAFYH [L-amino acid 5-mer array peptide]
S/B (signal to background ratio) [4]: 7.8
S/B [2]: 7.8

LAHPM
S/B (signal to background ratio) [3]: 62.9

LAHPQ
S/B (signal to background ratio) [1]: 168.6

LAKYH [L-amino acid 5-mer array peptide]
S/B (signal to background ratio) [4]: 12.2
S/B [2]: 12.2

LAMFH [L-amino acid 5-mer array peptide]
S/B (signal to background ratio) [1]: 21.1
S/B (signal to background ratio) [4]: 21.1

LAMYH [L-amino acid 5-mer array peptide]
S/B (signal to background ratio) [1]: 22.8
S/B (signal to background ratio) [4]: 22.8

LAQFH [L-amino acid 5-mer array peptide]
S/B (signal to background ratio) [1]: 39.7
S/B (signal to background ratio) [4]: 39.7

LARYH [L-amino acid 5-mer array peptide]
S/B (signal to background ratio) [4]: 12.2
S/B [2]: 12.2

LASYH [L-amino acid 5-mer array peptide]
S/B (signal to background ratio) [1]: 25.7
S/B (signal to background ratio) [4]: 25.7

LATFH [L-amino acid 5-mer array peptide]
S/B (signal to background ratio) [4]: 6.2
S/B [2]: 6.2

LAVYH [L-amino acid 5-mer array peptide]
S/B (signal to background ratio) [1]: 27.0
S/B (signal to background ratio) [4]: 27.0

LDHPQ
S/B (signal to background ratio) [3]: 89.3

LFHPQ
S/B (signal to background ratio) [1]: 138.2

LGAFH [L-amino acid 5-mer array peptide]
S/B (signal to background ratio) [1]: 52.3
S/B (signal to background ratio) [4]: 52.3

LGAYH [L-amino acid 5-mer array peptide]
S/B (signal to background ratio) [1]: 52.2
S/B (signal to background ratio) [4]: 52.2

LGEYH [L-amino acid 5-mer array peptide]
S/B (signal to background ratio) [1]: 21.3
S/B (signal to background ratio) [4]: 21.3

LGGYH [L-amino acid 5-mer array peptide]
S/B (signal to background ratio) [4]: 6.1
S/B [2]: 6.1

LGHPM
S/B (signal to background ratio) [3]: 76.1

LGHPQ
S/B (signal to background ratio) [1]: 171.2

LGIYH [L-amino acid 5-mer array peptide]
S/B (signal to background ratio) [4]: 10.5
S/B [2]: 10.5

LGKYH [L-amino acid 5-mer array peptide]
S/B (signal to background ratio) [4]: 6.7
S/B [2]: 6.7

LGPFH [L-amino acid 5-mer array peptide]
S/B (signal to background ratio) [1]: 51.1
S/B (signal to background ratio) [4]: 51.1

LGQFH [L-amino acid 5-mer array peptide]
S/B (signal to background ratio) [1]: 21.5
S/B (signal to background ratio) [4]: 21.5

LGQYH [L-amino acid 5-mer array peptide]
S/B (signal to background ratio) [1]: 31.1
S/B (signal to background ratio) [4]: 31.1

LGRFH [L-amino acid 5-mer array peptide]
S/B (signal to background ratio) [4]: 8.7
S/B [2]: 8.7

LGRYH [L-amino acid 5-mer array peptide]
S/B (signal to background ratio) [4]: 9.7
S/B [2]: 9.7

LGSFH [L-amino acid 5-mer array peptide]
S/B (signal to background ratio) [4]: 8.7
S/B [2]: 8.7

LHHPQ
S/B (signal to background ratio) [1]: 188.8

LHPMA
S/B (signal to background ratio) [1]: 41.0

LHPMI
S/B [2]: 5.3

LHPMM
S/B [2]: 5.2

LHPMN
S/B [2]: 9.7

LHPMR
S/B [2]: 7.0

LHPMS
S/B (signal to background ratio) [1]: 22.2

LHPMY
S/B [2]: 7.0

LHPQA
S/B (signal to background ratio) [1]: 128.0

LHPQF
S/B (signal to background ratio) [3]: 107.9

LHPQH
S/B (signal to background ratio) [1]: 38.5

LHPQM
S/B (signal to background ratio) [1]: 29.4

LHPQN
S/B (signal to background ratio) [3]: 105.2

LHPQT
S/B [2]: 15.6

LHPQV
S/B (signal to background ratio) [3]: 74.5

LHPQW
S/B [2]: 12.4

LIHPQ
S/B (signal to background ratio) [1]: 120.1

LKHPM
S/B (signal to background ratio) [1]: 26.3

LKHPQ
S/B (signal to background ratio) [3]: 83.5

LLHPQ
S/B (signal to background ratio) [3]: 105.6

LMHPM
S/B (signal to background ratio) [3]: 66.9

LMHPQ
S/B (signal to background ratio) [1]: 161.1

LNHPQ
S/B (signal to background ratio) [1]: 152.2

LPHPM
S/B (signal to background ratio) [3]: 58.1

LPHPQ
S/B (signal to background ratio) [1]: 180.6

LQHPM
S/B (signal to background ratio) [3]: 62.8

LQHPQ
S/B (signal to background ratio) [1]: 163.6

LSAYH [L-amino acid 5-mer array peptide]
S/B (signal to background ratio) [4]: 17.7
S/B [2]: 17.7

LSHPM
S/B (signal to background ratio) [1]: 55.5

LSHPQ
S/B (signal to background ratio) [1]: 156.2

LSVYH [L-amino acid 5-mer array peptide]
S/B (signal to background ratio) [4]: 5.3
S/B [2]: 5.3

LTHPM
S/B (signal to background ratio) [3]: 64.2

LTHPQ
S/B (signal to background ratio) [1]: 150.0

LVHPM
S/B (signal to background ratio) [1]: 31.0

LVHPQ
S/B (signal to background ratio) [1]: 129.9

LWHPM
S/B (signal to background ratio) [3]: 64.6

LWHPQ
S/B (signal to background ratio) [1]: 177.2

LYHPQ
S/B (signal to background ratio) [1]: 211.9

MAAHF [L-amino acid 5-mer array peptide]
S/B (signal to background ratio) [1]: 25.6
S/B (signal to background ratio) [4]: 25.6

MAFHF [L-amino acid 5-mer array peptide]
S/B (signal to background ratio) [5]: 4.8
S/B (signal to background ratio) [4]: 4.8

MAHPQ
S/B (signal to background ratio) [1]: 140.8

MAKHF [L-amino acid 5-mer array peptide]
S/B (signal to background ratio) [4]: 5.4
S/B [2]: 5.4

MALHF [L-amino acid 5-mer array peptide]
S/B (signal to background ratio) [4]: 8.0
S/B [2]: 8.0

MAMHF [L-amino acid 5-mer array peptide]
S/B (signal to background ratio) [4]: 17.9
S/B [2]: 17.9

MANHF [L-amino acid 5-mer array peptide]
S/B (signal to background ratio) [4]: 6.0
S/B [2]: 6.0

MDHPQ
S/B (signal to background ratio) [3]: 88.9

MEHPM
S/B (signal to background ratio) [1]: 23.4

MFHPM
S/B (signal to background ratio) [3]: 85.4

MFHPQ
S/B (signal to background ratio) [1]: 198.9

MGHPQ
S/B (signal to background ratio) [1]: 175.3

MGNHF [L-amino acid 5-mer array peptide]
S/B (signal to background ratio) [5]: 4.3
S/B (signal to background ratio) [4]: 4.3

MHHPQ
S/B (signal to background ratio) [1]: 178.1

MHPMA
S/B (signal to background ratio) [3]: 62.7

MHPMG
S/B (signal to background ratio) [1]: 42.9

MHPMI
S/B (signal to background ratio) [5]: 4.7

MHPMM
S/B [2]: 9.8

MHPMR
S/B [2]: 10.8

MHPMS
S/B (signal to background ratio) [1]: 25.8

MHPMV
S/B (signal to background ratio) [1]: 20.7

MHPMW
S/B (signal to background ratio) [5]: 4.3

MHPQA
S/B (signal to background ratio) [1]: 138.1

MHPQF
S/B (signal to background ratio) [3]: 107.7

MHPQG
S/B (signal to background ratio) [1]: 122.9

MHPQK
S/B [2]: 9.8

MHPQN
S/B (signal to background ratio) [1]: 120.0

MHPQQ
S/B (signal to background ratio) [1]: 29.0

MHPQS
S/B (signal to background ratio) [3]: 75.9

MHPQV
S/B (signal to background ratio) [1]: 55.8

MIHPM
S/B (signal to background ratio) [1]: 32.1

MIHPQ
S/B (signal to background ratio) [3]: 97.1

MKHPM
S/B (signal to background ratio) [1]: 20.4

MKHPQ
S/B (signal to background ratio) [3]: 84.7

MLAHF [L-amino acid 5-mer array peptide]
S/B (signal to background ratio) [4]: 7.2
S/B [2]: 7.2

MLHPQ
S/B (signal to background ratio) [1]: 136.4

MMHPM
S/B (signal to background ratio) [1]: 48.8

MNHPQ
S/B (signal to background ratio) [1]: 166.1

MPGHF [L-amino acid 5-mer array peptide]
S/B (signal to background ratio) [4]: 5.6
S/B [2]: 5.6

MPHPM
S/B (signal to background ratio) [3]: 58.7

MPHPQ
S/B (signal to background ratio) [1]: 180.4

MPQHF
S/B (signal to background ratio) [5]: 4.4

MPWRN [L-amino acid 5-mer array peptide]
S/B (signal to background ratio) [4]: 5.2
S/B [2]: 5.2

MPWRY [L-amino acid 5-mer array peptide]
S/B (signal to background ratio) [5]: 5.0
S/B (signal to background ratio) [4]: 5.0

MQHPM
S/B (signal to background ratio) [1]: 43.9

MQHPQ
S/B (signal to background ratio) [1]: 157.5

MRHPM
S/B (signal to background ratio) [3]: 60.6

MVAHF [L-amino acid 5-mer array peptide]
S/B (signal to background ratio) [4]: 6.3
S/B [2]: 6.3

MVHPM
S/B (signal to background ratio) [1]: 33.8

MVQHF [L-amino acid 5-mer array peptide]
S/B (signal to background ratio) [5]: 5.2
S/B (signal to background ratio) [4]: 5.2

MWHPM
S/B (signal to background ratio) [3]: 86.7

MWHPQ
S/B (signal to background ratio) [1]: 192.7

MYHPM
S/B (signal to background ratio) [3]: 89.3

MYHPQ
S/B (signal to background ratio) [1]: 182.6

NAHPM
S/B (signal to background ratio) [1]: 36.0

NAHPQ
S/B (signal to background ratio) [1]: 121.9
